Test results from the supplement of paper PMC10627819.

Columns and labels:
Test in all cases: fitness (endpoint OD595 vs no drug) (fraction); higher = more growth
B. subtilis 168 = system: B. subtilis 168
Outline: (§1)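 Cultures at OD595 0.01 were dispensed into 384-well plates in TSB, LB Lennox or CY and incubated at 37 °C. Every 30 min for 14 h, OD595 was read and corrected by the first reading. Fitness is the optical density at entry into stationary phase relative to the robust mean of no-drug control wells, capped at 1.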

S. aureus Newman = system: S. aureus Newman
Outline: as §1

S. pneumoniae D39V = system: S. pneumoniae D39V
Outline: as §1

O=C(O)[C@H]1/C(=C/CO)O[C@@H]2CC(=O)N21 [Clavulanic acid] + COc1ccc(C[C@H](N)C(=O)N[C@H]2[C@@H](O)[C@H](n3cnc4c(N(C)C)ncnc43)O[C@@H]2CO)cc1 [Puromycin]
Details	fitness
B. subtilis 168, first compound 1.5 µg/mL, partner 0.39 µg/mL	0.919
B. subtilis 168, first compound 1.5 µg/mL, partner 0.78 µg/mL	0.995
B. subtilis 168, first compound 1.5 µg/mL, partner 1.56 µg/mL	0.888
B. subtilis 168, first compound 3 µg/mL, partner 0.39 µg/mL	0.872
B. subtilis 168, first compound 3 µg/mL, partner 0.78 µg/mL	0.871
B. subtilis 168, first compound 3 µg/mL, partner 1.56 µg/mL	0.851
B. subtilis 168, first compound 6 µg/mL, partner 0.39 µg/mL	0.787
B. subtilis 168, first compound 6 µg/mL, partner 0.78 µg/mL	0.76
B. subtilis 168, first compound 6 µg/mL, partner 1.56 µg/mL	0.775
S. pneumoniae D39V, first compound 0.5 µg/mL, partner 1 µg/mL	≥ 1
S. pneumoniae D39V, first compound 0.5 µg/mL, partner 2 µg/mL	0.931
S. pneumoniae D39V, first compound 1 µg/mL, partner 1 µg/mL	0.937
S. pneumoniae D39V, first compound 1 µg/mL, partner 2 µg/mL	0.891
S. pneumoniae D39V, first compound 1 µg/mL, partner 4 µg/mL	0.528
S. pneumoniae D39V, first compound 2 µg/mL, partner 1 µg/mL	0.72
S. pneumoniae D39V, first compound 2 µg/mL, partner 2 µg/mL	0.793

fitness, S. aureus Newman, one replicate
Details	first compound 0.03125 µg/mL	first compound 0.0625 µg/mL	first compound 0.125 µg/mL
partner 0.39 µg/mL	0.952	≥ 1	0.89
partner 0.78 µg/mL	0.91	≥ 1	0.901
partner 1.56 µg/mL	≥ 1	0.99	0.894

O=C(O)[C@H]1/C(=C/CO)O[C@@H]2CC(=O)N21 [Clavulanic acid] + COc1cccc2c1C(=O)c1c(O)c3c(c(O)c1C2=O)C[C@@](O)(C(=O)CO)C[C@@H]3O[C@H]1C[C@H](N)[C@H](O)[C@H](C)O1 [Doxorubicin]
Details	fitness
B. subtilis 168, first compound 1.5 µg/mL, partner 0.625 µg/mL	0.911
B. subtilis 168, first compound 1.5 µg/mL, partner 1.25 µg/mL	0.9
B. subtilis 168, first compound 1.5 µg/mL, partner 2.5 µg/mL	0.696
B. subtilis 168, first compound 3 µg/mL, partner 0.625 µg/mL	0.849
B. subtilis 168, first compound 3 µg/mL, partner 1.25 µg/mL	0.88
B. subtilis 168, first compound 3 µg/mL, partner 2.5 µg/mL	0.625
B. subtilis 168, first compound 6 µg/mL, partner 0.625 µg/mL	0.792
B. subtilis 168, first compound 6 µg/mL, partner 1.25 µg/mL	0.736
S. pneumoniae D39V, first compound 0.5 µg/mL, partner 0.25 µg/mL	0.933
S. pneumoniae D39V, first compound 0.5 µg/mL, partner 0.5 µg/mL	0.954
S. pneumoniae D39V, first compound 0.5 µg/mL, partner 1 µg/mL	0.838
S. pneumoniae D39V, first compound 1 µg/mL, partner 0.25 µg/mL	0.885
S. pneumoniae D39V, first compound 1 µg/mL, partner 0.5 µg/mL	0.853
S. pneumoniae D39V, first compound 1 µg/mL, partner 1 µg/mL	0.813
S. pneumoniae D39V, first compound 2 µg/mL, partner 1 µg/mL	0.706

fitness, S. aureus Newman, one replicate
Details	first compound 0.03125 µg/mL	first compound 0.0625 µg/mL	first compound 0.125 µg/mL
partner 0.625 µg/mL	0.979	0.984	0.882
partner 1.25 µg/mL	0.905	0.883	0.803
partner 2.5 µg/mL	0.739	0.755	0.753

O=C(O)[C@H]1/C(=C/CO)O[C@@H]2CC(=O)N21 [Clavulanic acid] + C[C@@H]1O[C@@H]1P(=O)(O)O [Fosfomycin]
fitness
Details	first compound 0.5 µg/mL	first compound 1 µg/mL	first compound 1.5 µg/mL	first compound 2 µg/mL	first compound 3 µg/mL	first compound 6 µg/mL
B. subtilis 168, partner 1.562 µg/mL	–	–	0.691	–	0.644	0.559
B. subtilis 168, partner 3.124 µg/mL	–	–	0.564	–	0.529	0.453
B. subtilis 168, partner 6.248 µg/mL	–	–	0.478	–	0.416	0.301
S. pneumoniae D39V, partner 1.25 µg/mL	0.953	0.905	–	0.821	–	–
S. pneumoniae D39V, partner 2.5 µg/mL	0.933	0.872	–	0.802	–	–

fitness, S. aureus Newman, one replicate
Details	first compound 0.03125 µg/mL	first compound 0.0625 µg/mL	first compound 0.125 µg/mL
partner 0.781 µg/mL	0.96	0.885	0.841
partner 1.562 µg/mL	0.679	0.626	0.598
partner 3.124 µg/mL	0.396	0.382	0.349

O=C(O)[C@H]1/C(=C/CO)O[C@@H]2CC(=O)N21 [Clavulanic acid] + Cn1nnc(-c2ccc(-c3ccc(N4C[C@H](CO)OC4=O)cc3F)cn2)n1 [Tedizolid]
fitness, S. aureus Newman, one replicate
Details	first compound 0.03125 µg/mL	first compound 0.0625 µg/mL	first compound 0.125 µg/mL
partner 0.0625 µg/mL	0.827	0.837	0.868
partner 0.125 µg/mL	0.498	0.509	0.523
partner 0.25 µg/mL	0.0634	0.0552	0.0639

fitness, S. pneumoniae D39V
Details	partner 0.03125 µg/mL	partner 0.0625 µg/mL	partner 0.125 µg/mL	partner 0.25 µg/mL	partner 0.5 µg/mL
first compound 0.5 µg/mL	0.953	0.943	0.693	0.261	0.0809
first compound 1 µg/mL	0.887	0.938	0.673	0.371	0.227
first compound 2 µg/mL	0.855	0.901	0.581	0.262	0.0776

O=C(O)[C@H]1/C(=C/CO)O[C@@H]2CC(=O)N21 [Clavulanic acid] + N[C@@H]1CONC1=O [Cycloserine D]
fitness, B. subtilis 168
Details	first compound 1.5 µg/mL	first compound 3 µg/mL	first compound 6 µg/mL
partner 0.125 µg/mL	0.903	0.909	0.792
partner 0.25 µg/mL	0.957	0.861	0.801
partner 0.5 µg/mL	0.946	0.915	0.832

fitness, S. aureus Newman, one replicate
Details	first compound 0.03125 µg/mL	first compound 0.0625 µg/mL	first compound 0.125 µg/mL
partner 0.375 µg/mL	0.902	0.954	0.885
partner 0.75 µg/mL	0.884	0.942	0.888
partner 1.5 µg/mL	0.899	0.858	0.897

CNC(C)C1CCC(N)C(OC2C(N)CC(N)C(OC3OCC(C)(O)C(NC)C3O)C2O)O1 (stereo unspecified) [Gentamicin] + CO[C@@]12[C@H](COC(N)=O)C3=C(C(=O)C(C)=C(N)C3=O)N1C[C@@H]1N[C@@H]12 [Mitomycin C]
fitness, S. aureus Newman, one replicate, main component drawn
Details	first compound 0.375 µg/mL	first compound 0.75 µg/mL	first compound 1.5 µg/mL
partner 0.0156 µg/mL	0.755	0.779	0.774
partner 0.0312 µg/mL	0.762	0.725	0.707
partner 0.0625 µg/mL	0.602	0.603	0.607

fitness, main component drawn
Details	partner 0.001075 µg/mL	partner 0.002 µg/mL	partner 0.00215 µg/mL	partner 0.004 µg/mL	partner 0.0043 µg/mL	partner 0.008 µg/mL	partner 0.0156 µg/mL	partner 0.0312 µg/mL	partner 0.0625 µg/mL
S. aureus Newman, first compound 0.5 µg/mL	–	–	–	–	–	–	0.762	0.667	0.558
S. aureus Newman, first compound 1 µg/mL	–	–	–	–	–	–	0.797	0.698	0.601
S. aureus Newman, first compound 2 µg/mL	–	–	–	–	–	–	0.808	0.732	0.585
S. pneumoniae D39V, first compound 2 µg/mL	0.975	0.787	0.969	0.685	0.844	0.395	–	–	–
S. pneumoniae D39V, first compound 4 µg/mL	0.94	0.729	0.915	0.602	0.807	0.369	–	–	–
S. pneumoniae D39V, first compound 8 µg/mL	0.946	0.715	0.929	0.608	0.827	0.346	–	–	–
